Data taken from patent publication US11034692B1 (Genentech, Inc., priority 2017, dated 2021).

What follows are compounds tested against HPK1 (assay: HPK1 Lantha Binding Assay ("Lanth")). Details: Table B1-1, read-out: HPK1 Ki (μM) (Lanth).
Summary of the method: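 TR-FRET tracer displacement with 2 nM GST-tagged kinase, 2 nM Eu-anti-GST antibody and 15 nM Tracer222 at 23 C. Enzyme–antibody preincubated 1 h with compound, then tracer added for 1 h; 340 nm excitation, 615/665 nm emission. Ki from Morrison fit over an 11-point 5-fold dilution.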

Row | Structure (SMILES) | Ki [nM]
1 | Cc1ccncc1-c1cc2cc(NC(=O)[C@@H]3C[C@H]3c3cnn(C)c3)ncc2c(N)n1 [Compound 198, (1R,2R)—N-(8-amino-6-(4-methylpyridin-3-yl)-2,7-naphthyridin-3-yl)-2-(1-methyl-H-pyrazol-4-yl)cyclopropane-1-carboxamide] | 0.55
2 | Cc1c(N)cncc1-c1cc2cc(NC(=O)[C@@H]3C[C@H]3C#N)ncc2c(N)n1 [Compound 199, (1R,2R)—N-(8-amino-6-(5-amino-4-methylpyridin-3-yl)-2,7-naphthyridin-3-yl)-2-cyanocyclopropane-1-carboxamide] | 3.39
3 | Cc1c(N)cncc1-c1cc2cc(NC(=O)[C@H]3C[C@@H]3C#N)ncc2c(N)n1 [Compound 200, (1S,2S)—N-(8-amino-6-(5-amino-4-methylpyridin-3-yl)-2,7-naphthyridin-3-yl)-2-cyanocyclopropane-1-carboxamide] | 0.343
4 | Cc1ccncc1-c1cc2cc(NC(=O)[C@H]3C[C@@H]3C#N)ncc2c(N)n1 [Compound 202, (1S,2S)—N-(8-amino-6-(4-methylpyridin-3-yl)-2,7-naphthyridin-3-yl)-2-cyanocyclopropane-1-carboxamide] | 0.4
5 | Cc1ccncc1-c1cc2cc(NC(=O)[C@@H]3C[C@H]3C#N)ncc2c(N)n1 [Compound 203, (1R,2R)—N-(8-amino-6-(4-methylpyridin-3-yl)-2,7-naphthyridin-3-yl)-2-cyanocyclopropane-1-carboxamide] | 0.4
6 | Cc1ccncc1-c1cc2cc(NC(=O)C3CC3(C)CO)ncc2c(N)n1 (centres unmarked) [Compound 209, N-(8-amino-6-(4-methylpyridin-3-yl)-2,7-naphthyridin-3-yl)-2-(hydroxymethyl)-2-methylcyclopropanecarboxamide] | 30.7
7 | Cn1cc([C@@H]2C[C@H]2C(=O)Nc2cc3cc(-c4cnccc4CCO)nc(N)c3cn2)cn1 [Compound 214, (1R,2R)—N-(8-amino-6-(4-(2-hydroxyethyl)pyridin-3-yl)-2,7-naphthyridin-3-yl)-2-(1-methyl-1H-pyrazol-4-yl)cyclopropanecarboxamide] | 0.039
8 | Cn1cc([C@H]2C[C@@H]2C(=O)Nc2cc3cc(-c4cnccc4CCO)nc(N)c3cn2)cn1 [Compound 215, (1S,2S)—N-(8-amino-6-(4-(2-hydroxyethyl)pyridin-3-yl)-2,7-naphthyridin-3-yl)-2-(1-methyl-1H-pyrazol-4-yl)cyclopropanecarboxamide] | 1.19
9 | Cc1ccncc1-c1cc2cc(NC(=O)[C@H]3C[C@@H]3C3CNC(=O)O3)ncc2c(N)n1 (stereo partly drawn) [Compound 231, trans-N-(8-amino-6-(4-methylpyridin-3-yl)-2,7-naphthyridin-3-yl)-2-((S)-2-oxooxazolidin-5-yl)cyclopropanecarboxamide] | 0.173
10 | Cc1ccncc1-c1nc(N)c2cnc(NC(=O)[C@H]3C[C@@H]3c3cnn(C)c3)cc2c1Cl [Compound 233, (1S,2S)—N-(8-amino-5-chloro-6-(4-methylpyridin-3-yl)-2,7-naphthyridin-3-yl)-2-(1-methyl-1H-pyrazol-4-yl)cyclopropanecarboxamide] | 0.694
11 | Cc1ccncc1-c1nc(N)c2cnc(NC(=O)[C@@H]3C[C@H]3c3cnn(C)c3)cc2c1Cl [Compound 234, (1R,2R)—N-(8-amino-5-chloro-6-(4-methylpyridin-3-yl)-2,7-naphthyridin-3-yl)-2-(1-methyl-1H-pyrazol-4-yl)cyclopropanecarboxamide] | 0.078
12 | N#C[C@@H]1C[C@H]1C(=O)Nc1cc2cc(-c3cnccc3-c3cn[nH]c3)nc(N)c2cn1 [Compound 235, (1R,2R)—N-(6-(4-(1H-pyrazol-4-yl)pyridin-3-yl)-8-amino-2,7-naphthyridin-3-yl)-2-cyanocyclopropanecarboxamide] | 0.706
13 | N#C[C@H]1C[C@@H]1C(=O)Nc1cc2cc(-c3cnccc3-c3cn[nH]c3)nc(N)c2cn1 [Compound 236, (1S,2S)—N-(6-(4-(1H-pyrazol-4-yl)pyridin-3-yl)-8-amino-2,7-naphthyridin-3-yl)-2-cyanocyclopropanecarboxamide] | 23.3
14 | Cc1cc(-c2cnn(C)c2)ncc1-c1cc2cc(NC(=O)[C@@H]3C[C@H]3CC#N)ncc2c(N)n1 [Compound 237, (1R,2S)—N-(8-amino-6-(4-methyl-6-(1-methyl-1H-pyrazol-4-yl)pyridin-3-yl)-2,7-naphthyridin-3-yl)-2-(cyanomethyl)cyclopropanecarboxamide] | 10.2
15 | Cc1cc(-c2cnn(C)c2)ncc1-c1cc2cc(NC(=O)[C@H]3C[C@@H]3CC#N)ncc2c(N)n1 [Compound 238, (1S,2R)—N-(8-amino-6-(4-methyl-6-(i-methyl-H-pyrazol-4-yl)pyridin-3-yl)-2,7-naphthyridin-3-yl)-2-(cyanomethyl)cyclopropanecarboxamide] | 1.94
16 | COC(C)(C)[C@@H]1C[C@H]1C(=O)Nc1cc2cc(-c3cnccc3C)nc(N)c2cn1 [Compound 239, (1R,2R)—N-[8-amino-6-(4-methylpyridin-3-yl)-2,7-naphthyridin-3-yl]-2-(2-methoxypropan-2-yl)cyclopropane-1-carboxamide] | 5.28

Row | Structure (SMILES) | Ki [nM]
17 | COC(C)(C)[C@H]1C[C@@H]1C(=O)Nc1cc2cc(-c3cnccc3C)nc(N)c2cn1 [Compound 240, (1S,2S)—N-[8-amino-6-(4-methylpyridin-3-yl)-2,7-naphthyridin-3-yl]-2-(2-methoxypropan-2-yl)cyclopropane-1-carboxamide] | 47
18 | Cc1ccncc1-c1cc2cc(NC(=O)[C@@H]3C[C@H]3C(C)(C)O)ncc2c(N)n1 [Compound 241, (1R,2R)—N-[8-amino-6-(4-methylpyridin-3-yl)-2,7-naphthyridin-3-yl]-2-(2-hydroxypropan-2-yl)cyclopropane-1-carboxamide] | 2.19
19 | Cc1ccncc1-c1cc2cc(NC(=O)[C@H]3C[C@@H]3C(C)(C)O)ncc2c(N)n1 [Compound 242, (1S,2S)—N-[8-amino-6-(4-methylpyridin-3-yl)-2,7-naphthyridin-3-yl]-2-(2-hydroxypropan-2-yl)cyclopropane-1-carboxamide] | 31.2
20 | N#C[C@@H]1C[C@H]1C(=O)Nc1cc2cc(-c3cnccc3-c3cc[nH]n3)nc(N)c2cn1 [Compound 243, (1R,2R)—N-(6-(4-(1H-pyrazol-3-yl)pyridin-3-yl)-8-amino-2,7-naphthyridin-3-yl)-2-cyanocyclopropanecarboxamide] | 1.37
21 | N#C[C@H]1C[C@@H]1C(=O)Nc1cc2cc(-c3cnccc3-c3cc[nH]n3)nc(N)c2cn1 [Compound 244, (1S,2S)—N-(6-(4-(1H-pyrazol-3-yl)pyridin-3-yl)-8-amino-2,7-naphthyridin-3-yl)-2-cyanocyclopropanecarboxamide] | 3.56
22 | Nc1nc(-c2cnccc2CCO)cc2cc(NC(=O)[C@H]3C[C@@H]3c3cnsc3)ncc12 [Compound 245, (1S,2S)—N-(8-amino-6-(4-(2-hydroxyethyl)pyridin-3-yl)-2,7-naphthyridin-3-yl)-2-(isothiazol-4-yl)cyclopropanecarboxamide] | 5.42
23 | Nc1nc(-c2cnccc2CCO)cc2cc(NC(=O)[C@@H]3C[C@H]3c3cnsc3)ncc12 [Compound 246, (1R,2R)—N-(8-amino-6-(4-(2-hydroxyethyl)pyridin-3-yl)-2,7-naphthyridin-3-yl)-2-(isothiazol-4-yl)cyclopropanecarboxamide] | 0.0455
24 | Cc1c(N)cncc1-c1cc2cc(NC(=O)[C@H]3C[C@@H]3CC#N)ncc2c(N)n1 [Compound 247, (1S,2R)—N-[8-amino-6-(5-amino-4-methylpyridin-3-yl)-2,7-naphthyridin-3-yl]-2-(cyanomethyl)cyclopropane-1-carboxamide] | 0.0219
25 | Cc1c(N)cncc1-c1cc2cc(NC(=O)[C@@H]3C[C@H]3CC#N)ncc2c(N)n1 [Compound 248, (1R,2S)—N-[8-amino-6-(5-amino-4-methylpyridin-3-yl)-2,7-naphthyridin-3-yl]-2-(cyanomethyl)cyclopropane-1-carboxamide] | 1.03
26 | Cc1ccncc1-c1cc2cc(Nc3cnn([C@@H]4CCN(C)C4=O)c3)ncc2c(N)n1 [Compound 249, (3R)-3-(4-[[8-amino-6-(4-methylpyridin-3-yl)-2,7-naphthyridin-3-yl]amino]-1H-pyrazol-1-yl)-1-methylpyrrolidin-2-one] | 0.433
27 | Cc1ccncc1-c1cc2cc(Nc3cnn([C@H]4CCN(C)C4=O)c3)ncc2c(N)n1 [Compound 250, (3S)-3-(4-[[8-amino-6-(4-methylpyridin-3-yl)-2,7-naphthyridin-3-yl]amino]-1H-pyrazol-1-yl)-1-methylpyrrolidin-2-one] | 0.184
28 | Cc1ccncc1-c1cc2cc(Nc3cnn([C@@H]4CCCN(C)C4=O)c3)ncc2c(N)n1 [Compound 251, (3R)-3-(4-[[8-amino-6-(4-methylpyridin-3-yl)-2,7-naphthyridin-3-yl]amino]-1H-pyrazol-1-yl)-1-methylpiperidin-2-one] | 0.512
29 | Cc1ccncc1-c1cc2cc(Nc3cnn([C@H]4CCCN(C)C4=O)c3)ncc2c(N)n1 [Compound 252, (3S)-3-(4-[[8-amino-6-(4-methylpyridin-3-yl)-2,7-naphthyridin-3-yl]amino]-1H-pyrazol-1-yl)-1-methylpiperidin-2-one] | 0.569
30 | Nc1nc(-c2cnccc2CCO)cc2cc(NC(=O)[C@@H]3C[C@H]3c3cccnc3)ncc12 [Compound 253, (1R,2R)—N-[8-amino-6-[4-(2-hydroxyethyl)pyridin-3-yl]-2,7-naphthyridin-3-yl]-2-(pyridin-3-yl)cyclopropane-1-carboxamide] | 0.0892
31 | Nc1nc(-c2cnccc2CCO)cc2cc(NC(=O)[C@H]3C[C@@H]3c3cccnc3)ncc12 [Compound 254, (1S,2S)—N-[8-amino-6-[4-(2-hydroxyethyl)pyridin-3-yl]-2,7-naphthyridin-3-yl]-2-(pyridin-3-yl)cyclopropane-1-carboxamide] | 4.55
32 | Cc1ccncc1-c1cc2cc(NC(=O)[C@H]3[C@@H]4CN(C5COC5)C[C@@H]43)ncc2c(N)n1 [Compound 255, (exo)-N-[8-amino-6-(4-methylpyridin-3-yl)-2,7-naphthyridin-3-yl]-3-(oxetan-3-yl)-3-azabicyclo[3.1.0]hexane-6-carboxamide] | 33.9
